# How the values were obtained:
# [1] = system: FADD−/− Jurkat cells; test: Necroptosis inhibition assay, TNF-α-induced necroptosis (CellTiter-Glo 2.0); assay type: cell-based, human; conditions: TNF-α 15 ng/mL; for Necroptosis inhibition assay (Rescue %) 1 μM: compound 1 μM; for Necroptosis inhibition assay (Rescue %) 10 μM: compound 10 μM
# Procedure, shortened: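 Cells at 5.0×10^5 cells/mL were pretreated with compound (final 0.1, 1 and 10 μM) for 30 minutes at room temperature, then given TNF-α at 15 ng/mL final. After 20 to 24 hours at 37° C, 5% CO2, viability was read as ATP luminescence to calculate cytotoxicity and necroptosis inhibition rate.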
# [2] = target: T1, MLKL (Homo sapiens, UniProt Q8NB16); test: MLKL degradation assay in HepG2 cell line (western blot); assay type: cell-based; set-up: endogenous in cells; host or cells: HepG2 or HaCaT; conditions: cell line not given; for Degradation assay (Degradation %) 1 μM: compound 1 μM; for Degradation assay (Degradation %) 10 μM: compound 10 μM
# T1 sequence (Q8NB16 1-471): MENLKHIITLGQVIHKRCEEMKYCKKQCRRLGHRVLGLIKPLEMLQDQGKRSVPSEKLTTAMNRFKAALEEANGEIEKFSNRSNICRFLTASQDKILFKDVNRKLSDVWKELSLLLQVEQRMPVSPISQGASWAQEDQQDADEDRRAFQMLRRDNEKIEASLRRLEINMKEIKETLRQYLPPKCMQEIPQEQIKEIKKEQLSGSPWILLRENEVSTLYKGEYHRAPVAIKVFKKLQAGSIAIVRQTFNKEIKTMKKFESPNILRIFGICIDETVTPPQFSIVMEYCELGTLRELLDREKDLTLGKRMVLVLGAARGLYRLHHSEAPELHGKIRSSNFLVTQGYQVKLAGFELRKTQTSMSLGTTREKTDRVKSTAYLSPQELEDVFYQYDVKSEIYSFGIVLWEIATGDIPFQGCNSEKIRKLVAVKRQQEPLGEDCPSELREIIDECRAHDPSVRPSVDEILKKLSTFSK
# Procedure, shortened: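 HepG2 cells were exposed to compound at a final 1 or 10 μM for 20-24 hours at 37 °C, 5% CO2. RIPA lysates were normalized by BCA assay, 10-15 μg protein resolved by SDS-PAGE, and MLKL levels detected by western blot with chemiluminescence.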
# [3] = target: T1, MLKL; test: Measurement of binding affinity with MLKL receptor (competitive binding assay, Kd); set-up: made in house; host or cells: HEK 293 cell line (T7 phage in E. coli BL21-derived host is also described)
# Procedure, shortened: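 Competitive displacement of MLKL, expressed in HEK 293 cells and DNA-tagged for qPCR, from immobilized ligand on biotin-blocked beads. Compounds were added from 111× DMSO stocks (final DMSO 0.9%). Kinase left in the eluates was quantified by qPCR to give Kd.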
SMILES,Necroptosis inhibition assay (Rescue %) 1 μM ([1]; FADD−/− Jurkat cells) [%],Necroptosis inhibition assay (Rescue %) 10 μM ([1]; FADD−/− Jurkat cells) [%],Degradation assay (Degradation %) 1 μM [2] [%],Degradation assay (Degradation %) 10 μM [2] [%],Kd [3] [nM],Necroptosis inhibition assay (Rescue %) 1 μM [1] [%],Necroptosis inhibition assay (Rescue %) 10 μM [1] [%]
"Nc1ncc(-c2cnn(C3CCN(C(=O)CCC4CCN(C(=O)CCc5cccc6c5CN(C5CCC(=O)NC5=O)C6=O)CC4)CC3)c2)nc1C(=O)O[C@@H](C(=O)Nc1ccc(F)cc1)c1ccccc1 (stereo partly drawn) [TDH-439, (R)-2-((4-fluorophenyl)amino)-2-oxo-1-phenylethyl 3-amino-6-(1-(1-(3-(1-(3-(2-(2,6-dioxopiperidin-3-yl)-1-oxoisoindolin-4-yl)propanoyl)piperidin-4-yl)propanoyl)piperidin-4-yl)-1H-pyrazol-4-yl)pyrazine-2-carboxylate]",41.96,43.64,86.02,91.86,0.91,–,–
"Nc1ncc(-c2cnn(C3CCN(CCCN4CCN(C(=O)c5ccc(C(=O)NC6CCC(=O)NC6=O)cc5)CC4)CC3)c2)nc1C(=O)O[C@@H](C(=O)Nc1ccc(F)cc1)c1ccccc1 (stereo partly drawn) [TDH-535, (R)-2-((4-fluorophenyl)amino)-2-oxo-1-phenylethyl 3-amino-6-(1-(1-(3-(4-(4-((2,6-dioxopiperidin-3-yl)carbamoyl)benzoyl)piperazin-1-yl)propyl)piperidin-4-yl)-1H-pyrazol-4-yl)pyrazine-2-carboxylate]",20.08,23.78,57.69,44.41,0.96,–,–
"Nc1ncc(-c2cnn(C3CCN(C(=O)COCCOCCNC(=O)C4CN(c5ccc6c(c5)C(=O)N(C5CCC(=O)NC5=O)C6=O)C4)CC3)c2)nc1C(=O)O[C@@H](C(=O)Nc1ccc(F)cc1)c1ccccc1 (stereo partly drawn) [TDH-193, (R)-2-((4-fluorophenyl)amino)-2-oxo-1-phenylethyl 3-amino-6-(1-(1-(2-(2-(2-(1-(2-(2,6-dioxopiperidin-3-yl)-1,3-dioxoisoindolin-5-yl)azetidine-3-carboxamido)ethoxy)ethoxy)acetyl)piperidin-4-yl)-1H-pyrazol-4-yl)pyrazine-2-carboxylate]",–,–,–,11.22,6.1,43.97,40.55
"Cc1cccc(NC(=O)[C@H](OC(=O)c2nc(-c3cnn(C4CCN(CCCN5CCN(C(=O)COc6ccc7c(c6)C(=O)N(C6CCC(=O)NC6=O)C7=O)CC5)CC4)c3)cnc2N)c2ccccc2)c1 (stereo partly drawn) [TDH-487, (R)-2-oxo-1-phenyl-2-(m-tolylamino)ethyl 3-amino-6-(1-(1-(3-(4-(2-((2-(2,6-dioxopiperidin-3-yl)-1,3-dioxoisoindolin-5-yl)oxy)acetyl)piperazin-1-yl)propyl)piperidin-4-yl)-1H-pyrazol-4-yl)pyrazine-2-carboxylate]",59.49,58.14,77.25,89.93,4.3,–,–
"Nc1ncc(-c2cnn(C3CCN(C(=O)C4CCN(C(=O)C5CCN(c6cccc7nnn(C8CCC(=O)NC8=O)c(=O)c67)CC5)CC4)CC3)c2)nc1C(=O)O[C@@H](C(=O)Nc1ccc(F)cc1)c1ccccc1 (stereo partly drawn) [TDH-414, (R)-2-((4-fluorophenyl)amino)-2-oxo-1-phenylethyl 3-amino-6-(1-(1-(1-(1-(3-(2,6-dioxopiperidin-3-yl)-4-oxo-3,4-dihydrobenzo[d][1,2,3]triazin-5-yl)piperidine-4-carbonyl)piperidine-4-carbonyl)piperidin-4-yl)-1H-pyrazol-4-yl)pyrazine-2-carboxylate]",17.52,13.19,75.28,74.89,0.79,–,–
"Nc1ncc(-c2ccc(N3CCN(CC4CCN(C(=O)COc5cccc6c5C(=O)N(C5CCC(=O)NC5=O)C6=O)CC4)CC3)nc2)nc1C(=O)OC(C(=O)Nc1ccc(F)cc1)c1ccccc1 (stereo not shown) [TDH-255, 2-((4-fluorophenyl)amino)-2-oxo-1-phenylethyl 3-amino-6-(6-(4-((1-(2-((2-(2,6-dioxopiperidin-3-yl)-1,3-dioxoisoindolin-4-yl)oxy)acetyl)piperidin-4-yl)methyl)piperazin-1-yl)pyridin-3-yl)pyrazine-2-carboxylate]",–,–,35.59,34.35,41,46.68,32.39
"Nc1ncc(-c2cnn(C3CCN(CCC4CCN(CC5CCN(c6cc7c(cc6F)C(=O)N(C6CCC(=O)NC6=O)C7=O)CC5)CC4)CC3)c2)nc1C(=O)O[C@@H](C(=O)Nc1ccc(F)cc1)c1ccccc1 (stereo partly drawn) [TDH-514, (R)-2-((4-fluorophenyl)amino)-2-oxo-1-phenylethyl 3-amino-6-(1-(1-(2-(1-((1-(2-(2,6-dioxopiperidin-3-yl)-6-fluoro-1,3-dioxoisoindolin-5-yl)piperidin-4-yl)methyl)piperidin-4-yl)ethyl)piperidin-4-yl)-1H-pyrazol-4-yl)pyrazine-2-carboxylate]",24.14,−67.06,55.53,84.44,0.9,–,–
"Nc1ncc(-c2cnn(C3CCN(CCOC4CCN(C(=O)COc5cccc6c5C(=O)N(C5CCC(=O)NC5=O)C6=O)CC4)CC3)c2)nc1C(=O)OC(C(=O)Nc1ccc(F)cc1)c1ccccc1 (stereo not shown) [TDH-251, 2-((4-fluorophenyl)amino)-2-oxo-1-phenylethyl 3-amino-6-(1-(1-(2-((1-(2-((2-(2,6-dioxopiperidin-3-yl)-1,3-dioxoisoindolin-4-yl)oxy)acetyl)piperidin-4-yl)oxy)ethyl)piperidin-4-yl)-1H-pyrazol-4-yl)pyrazine-2-carboxylate]",–,–,72.87,63.25,1.8,84.44,74.61
"Nc1ncc(-c2cnn(C3CCN(CCCN4CC5CN(C(=O)CCc6ccc7c(c6)C(=O)N(C6CCC(=O)NC6=O)C7=O)CC5C4)CC3)c2)nc1C(=O)O[C@@H](C(=O)Nc1ccc(F)cc1)c1ccccc1 (stereo partly drawn) [TDH-480, (R)-2-((4-fluorophenyl)amino)-2-oxo-1-phenylethyl 3-amino-6-(1-(1-(3-(5-(3-(2-(2,6-dioxopiperidin-3-yl)-1,3-dioxoisoindolin-5-yl)propanoyl)hexahydropyrrolo[3,4-c]pyrrol-2(1H)-yl)propyl)piperidin-4-yl)-1H-pyrazol-4-yl)pyrazine-2-carboxylate]",35.76,39.78,46.42,73,0.48,–,–
"Nc1ncc(-c2cnn(C3CN(CC4CCN(C(=O)COc5cccc6c5C(=O)N(C5CCC(=O)NC5=O)C6=O)CC4)C3)c2)nc1C(=O)OC(C(=O)Nc1ccc(F)cc1)c1ccccc1 (stereo not shown) [TDH-298, 2-((4-fluorophenyl)amino)-2-oxo-1-phenylethyl 3-amino-6-(1-(1-((1-(2-((2-(2,6-dioxopiperidin-3-yl)-1,3-dioxoisoindolin-4-yl)oxy)acetyl)piperidin-4-yl)methyl)azetidin-3-yl)-1H-pyrazol-4-yl)pyrazine-2-carboxylate]",–,–,45.8,78.83,9.8,41.64,66.6

# Source: US20240252488A1 (KOREA RESEARCH INSTITUTE OF CHEMICAL TECHNOLOGY, priority 2020, published 2024)
